Like-named read-outs stand apart in the source and are kept apart here.
Experiments:
[1] = tested on: UWB1.289 cells; experiment: Cell proliferation inhibitory activity in BRCA1/2-mutant or HRD-positive cells (Cell Titer-Glo); type: cell-based; conditions: read-out: GI50 UWB1.289 BRCA1 mut
Description: <Experimental Example 2> Evaluation of Cell Proliferation Inhibitory Activity in BRCA1/2-Mutant or HRD-Positive Cells
To evaluate the inhibitory activity of the compound according to the present invention on the proliferation of BRCA1/2 mutants or homologous recombination deficient (HRD) positive cell lines, the following experiments were performed. UWB1.289 cells were cultured in medium (50% MEBM + 50% RPMI1640), and 1,000 cells were seeded in a well plate (black clear bottom 96-well plate, Corning) 16 to 24 hours prior to compound treatment. The compounds were diluted in dimethyl sulfoxide (3-fold serial dilution starting at 10 µM, for a total of 10 concentrations) and injected at 1 µl per well, resulting a final concentration range of […] to 10 µM. Measurements of live cells were performed by a reaction in a 37 °C and CO2 incubator for 144 hours after compound treatment. The cells were incubated for 10 minutes in an incubator using Cell Titer-Glo luminescent cell-viability reagent (Promega), and luminescence intensity thereof was measured using a reader (SynergyNeo2, Biotek). GI50 values were calculated using the GraphPad Prism version 8.4.3 (GraphPad software Inc., San Diego) program.

[2] = biological target: T1, recombinant USP1 protein (Homo sapiens, UniProt O94782, DEL125-138/DEL229-408/DEL608-737); experiment: Binding affinity to recombinant USP1 protein by differential scanning fluorimetry; conditions: read-out: ΔTm (°C)
T1 sequence (O94782 with tags, fused parts or gaps DEL125-138/DEL229-408/DEL608-737): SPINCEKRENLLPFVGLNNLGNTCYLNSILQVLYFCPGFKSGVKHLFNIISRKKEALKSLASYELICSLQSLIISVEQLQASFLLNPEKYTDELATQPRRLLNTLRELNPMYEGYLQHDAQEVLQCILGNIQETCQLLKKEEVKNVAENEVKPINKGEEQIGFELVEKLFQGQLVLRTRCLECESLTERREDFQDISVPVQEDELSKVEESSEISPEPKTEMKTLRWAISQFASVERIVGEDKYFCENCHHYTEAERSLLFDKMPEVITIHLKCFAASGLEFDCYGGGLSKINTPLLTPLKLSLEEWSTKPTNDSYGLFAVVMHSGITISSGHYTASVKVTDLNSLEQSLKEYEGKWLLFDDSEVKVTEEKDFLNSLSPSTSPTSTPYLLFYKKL
Description: <Experimental Example 1> Confirmation and evaluation of the binding affinity to recombinant USP1 protein
To evaluate the binding affinity of the compounds of the present invention to the USP1 protein, the following experiment was performed using differential scanning fluorimetry.
Recombinant 0.03 mg/mL USP1 (Δ1-66, Δ125-138, Δ229-408, Δ608-737) protein, dye reagent, and buffer solution (50 mM Tris-HCl pH 8.0, 150 mM NaCl, 2% glycerol, 1 mM DTT) were mixed and 19 µL of the mixture was dispensed into a well plate (MicroAmp Fast 96-Well Reaction plate, 0.1 mL). Each compound was injected at a final concentration of 100 µM in an amount of 1 µL, and the plate containing a total of 20 µL was sealed with MicroAmp Optical Adhesive Film. The melting temperature (Tm) of the protein in each well was measured using a real-time PCR (RT-PCR) device. The difference between the Tm of the sample containing the compound and the Tm containing DMSO is referred to as delta Tm (ΔTm), where a larger ΔTm value indicates stronger binding affinity. The degree of temperature at which the protein is modified in the presence of the compound compared to DMSO was calculated according to Equation 1 below: [formula]

[3] = UWB1289, UWB1.289 cells, 144 hours after compound treatment, Cell Titer-Glo, 1.5 nM to 10 µM
[4] = compound 100 µM, 0.03 mg/mL USP1 (Δ1-66, Δ125-138, Δ229-408, Δ608-737), Tm with compound minus Tm with DMSO

| ΔTm at 100 µM [2, 4] [°C] | SMILES | GI50 [1, 3] [nM] | GI50 ([1]; UWB1289, 144 h) [nM] | ΔTm at 100 µM [2] [°C] |
| --- | --- | --- | --- | --- |
| > 5 | COc1ncnc(C2CC2)c1-c1ncc2cc(C(=O)Nc3cnn(C)c3)n(Cc3ccc(-c4nc(C(F)(F)F)cn4C(C)C)cc3)c2n1 [Example 30, 2-(4-cyclopropyl-6-methoxypyrimidin-5-yl)-7-(4-(1-isopropyl-4-(trifluoromethyl)-1H-imidazol-2-yl)benzyl)-N-(1-methyl-1H-pyrazol-4-yl)-7H-pyrrolo[2,3-d]pyrimidine-6-carboxamide] | < 100 | – | – |
| > 5 | COc1ncnc(C2CC2)c1-c1ncc2cc(C(=O)N[C@H](C)C(F)(F)F)n(Cc3ccc(-c4nc(C(F)(F)F)cn4C(C)C)cc3)c2n1 [Example 85, (R)-2-(4-cyclopropyl-6-methoxypyrimidin-5-yl)-7-(4-(1-isopropyl-4-(trifluoromethyl)-1H-imidazol-2-yl)benzyl)-N-(1,1,1-trifluoropropan-2-yl)-7H-pyrrolo[2,3-d]pyrimidine-6-carboxamide] | 100 to 500 | – | – |
| > 5 | COc1ncnc(C2CC2)c1-c1ncc2cc(C(=O)N3CCN(C)CC3)n(Cc3ccc(-c4nc(C(F)(F)F)cn4C)cc3)c2n1 [Example 170, (2-(4-cyclopropyl-6-methoxypyrimid in-5-yl)-7-(4-(1-methyl-4-(trifluoromethyl)-1H-imidazol-2-yl)benzyl) -7H-pyrrolo[2,3-d]pyrimidin-6-yl) (4-methylpiperazi n-1-yl)methanone] | 100 to 500 | – | – |
| > 5 | COc1ncnc(C2CC2)c1-c1ncc2cc(C(N)=O)n(Cc3ccc(-n4nc(C(F)(F)F)cc4C)cc3)c2n1 [Example 177, 2-(4-cyclopropyl-6-methoxypyrimidin-5-yl)-7-(4-(5-methyl-3-(trifluoromethyl)-1H-pyrazol-1-yl)benzyl)-7H-pyrrolo[2,3-d]pyrimidine-6-carboxamide] | < 100 | – | – |
| > 5 | [2H]C([2H])([2H])n1cc(C(F)(F)F)nc1-c1ccc(Cn2c(C(=O)NC)cc3cnc(-c4c(OC)ncnc4C4CC4)nc32)cc1 [Example 183, 2-(4-cyclopropyl-6-methoxypyrimidin-5-yl)-N-methyl-7-(4-(1-(methyl-d3)-4-(trifluoromethyl)-1H-imidazol-2-yl)benzyl)-7H-pyrrolo[2,3-d]pyrimidine-6-carboxamide] | < 100 | – | – |
| > 5 | COc1ncnc(C2CC2)c1-c1ncc2cc(C(=O)NC3CN(C)C3)n(Cc3ccc(-c4nc(C(F)(F)F)cn4C)cc3)c2n1 [Example 171, 2-(4-cyclopropyl-6-methoxypyrimidin-5-yl)-7-(4-(1-methyl-4-(trifluoromethyl)-1H-imidazol-2-yl)benzyl)-N-(1-methylazetidin-3-yl)-7H-pyrrolo[2,3-d]pyrimidine-6-carboxamide] | < 100 | – | – |
| > 5 | CNC(=O)c1cc2cnc(-c3c(OC)ncnc3C3CC3)nc2n1Cc1ccc(-n2nc(C(C)(C)O)cc2C)cc1 [Example 188, 2-(4-cyclopropyl-6-methoxypyrimidin-5-yl)-7-(4-(3-(2-hydroxypropan-2-yl)-5-methyl-1H-pyrazol-1-yl)benzyl)-N-methyl-7H-pyrrolo[2,3-d]pyrimidine-6-carboxamide] | 100 to 500 | – | – |
| > 5 | COc1ncnc(C2CC2)c1-c1ncc2cc(C(=O)N[C@@H](C)CO)n(Cc3ccc(-c4nc(C(F)(F)F)cn4C(C)C)cc3)c2n1 [Example 113, (S)-2-(4-cyclopropyl-6-methoxypyrimidin-5-yl)-N-(1-hydroxypropan-2-yl)-7-(4-(1-isopropyl-4-(trifluoromethyl)-1H-imidazol-2-yl)benzyl)-7H-pyrrolo[2,3-d]pyrimidine-6-carboxamide] | < 100 | – | – |
| > 5 | COc1ncnc(C2CC2)c1-c1ncc2cc(C(=O)NC(C)C)n(Cc3ccc(-c4nc(C(F)(F)F)cn4C(C)C)cc3)c2n1 [Example 48, 2-(4-cyclopropyl-6-methoxypyrimidin-5-yl)-N-isopropyl-7-(4-(1-isopropyl-4-(trifluoromethyl)-1H-imidazol-2-yl)benzyl)-7H-pyrrolo[2,3-d]pyrimidine-6-carboxamide] | < 100 | – | – |
| – | COc1ncnc(C2CC2)c1-c1ncc2cc(C(=O)NCC3(O)COC3)n(Cc3ccc(-c4nc(C(F)(F)F)cn4C(C)C)cc3)c2n1 [Example 140, 2-(4-cyclopropyl-6-methoxypyrimidin-5-yl)-N-((3-hydroxyoxetan-3-yl)methyl)-7-(4-(1-isopropyl-4-(trifluoromethyl)-1H-imidazol-2-yl)benzyl)-7H-pyrrolo[2,3-d]pyrimidine-6-carboxamide] | – | < 100 | > 5 |
| > 5 | CNC(=O)c1cc2cnc(-c3c(OC)ncnc3C3CC3)nc2n1Cc1ccc(-c2nc(C(F)(F)F)cn2[C@@H]2CCN(C)C[C@H]2F)cc1 [Example 187, 2-(4-cyclopropyl-6-methoxypyrimidin-5-yl)-7-(4-(1-((3R,4R)-3-fluoro-1-methylpiperidin-4-yl)-4-(trifluoromethyl)-1H-imidazol-2-yl)benzyl)-N-methyl-7H-pyrrolo[2,3-d]pyrimidine-6-carboxamide] | < 100 | – | – |
| > 5 | COc1ncnc(C2CC2)c1-c1ncc2cc(C(=O)N[C@@H]3CCN(C)[C@H](C)C3)n(Cc3ccc(-c4nc(C(F)(F)F)cn4C)cc3)c2n1 [Example 199, 2-(4-cyclopropyl-6-methoxypyrimidin-5-yl)-N-((2R,4R)-1,2-dimethylpiperidin-4-yl)-7-(4-(1-methyl-4-(trifluoromethyl)-1H-imidazol-2-yl)benzyl)-7H-pyrrolo[2,3-d]pyrimidine-6-carboxamide] | < 100 | – | – |
| > 5 | COc1ncnc(C2CC2)c1-c1ncc2cc(C(=O)N[C@H]3CN(C)C[C@H]3F)n(Cc3ccc(-c4nc(C(F)(F)F)cn4C)cc3)c2n1 [Example 182, 2-(4-cyclopropyl-6-methoxypyrimidin-5-yl)-N-((3S,4R)-4-fluoro-1-methylpyrrolidin-3-yl)-7-(4-(1-methyl-4-(trifluoromethyl)-1H-imidazol-2-yl)benzyl)-7H-pyrrolo[2,3-d]pyrimidine-6-carboxamide] | < 100 | – | – |
| > 5 | COc1ncnc(C2CC2)c1-c1ncc2cc(C(=O)NCC3CCC(F)(F)C3)n(Cc3ccc(-c4nc(C(F)(F)F)cn4C(C)C)cc3)c2n1 (centres unmarked) [Example 80, 2-(4-cyclopropyl-6-methoxypyrimidin-5-yl)-N-((3,3-difluorocyclopentyl)methyl)-7-(4-(1-isopropyl-4-(trifluoromethyl)-1H-imidazol-2-yl)benzyl)-7H-pyrrolo[2,3-d]pyrimidine-6-carboxamide] | 100 to 500 | – | – |
| > 5 | COc1ncnc(C2CC2)c1-c1ncc2cc(C(=O)Nc3cccc4ccccc34)n(Cc3ccc(-c4nc(C(F)(F)F)cn4C(C)C)cc3)c2n1 [Example 28, 2-(4-cyclopropyl-6-methoxypyrimidin-5-yl)-7-(4-(1-isopropyl-4-(trifluoromethyl)-1H-imidazol-2-yl)benzyl)-N-(naphthalen-1-yl)-7H-pyrrolo[2,3-d]pyrimidine-6-carboxamide] | < 100 | – | – |
| > 5 | CNC(=O)c1cc2cnc(-c3c(OC)ncnc3C3CC3)nc2n1Cc1ccc(-c2nc(C(F)(F)F)cn2C)c(OC)c1 [Example 194, 2-(4-cyclopropyl-6-methoxypyrimidin-5-yl)-7-(3-methoxy-4-(1-methyl-4-(trifluoromethyl)-1H-imidazol-2-yl)benzyl)-N-methyl-7H-pyrrolo[2,3-d]pyrimidine-6-carboxamide] | 100 to 500 | – | – |
